Values quoted from earlier work in US10973875B2, “Medical agents and uses thereof” (LOKON PHARMA AB, priority 2014, dated 2021).

Conditions: patients treated with gemcitabine

SMILES: Nc1ccn([C@@H]2O[C@H](CO)[C@@H](O)C2(F)F)c(=O)n1 [gemcitabine]
- levels of TGF, Tregs and MDSCs: significantly lower levels
